The record followed here is US8772230B2, “Niacin and/or trigonelline as a muscle stimulant” (DSM IP Assets B.V., priority 2009, dated 2014).

Assay [1] deals with Female C57B1/6 mice. The settings on record: three weeks tail suspension. The source says: To extend our in vitro and in vivo results we were also interested in testing the effects of trigonelline during skeletal muscle unloading (atrophy conditions). Therefore we conducted a second in vivo study were the hindlimbs of the animals were unloaded to induce skeletal muscle atrophy.
Tail suspension leads to skeletal muscle atrophy in the unloaded hindlimbs of the animals.
(§1) Female C57B1/6 mice were delivered at a weight of 18-20 g and acclimatized to the facilities for a period of one week. At the beginning of the study the animals were randomized into two groups (10 animals per group).
Thereafter the groups were placed in special cages and the hindlimbs were unloaded (tail suspension) for a duration of three weeks. All mice were housed separately and had access to feed and water ad libidum. Animals were treated for three weeks by gavage with trigonelline-hydrochloride at a daily dosage of 300 mg/kg/BW and the control group received vehicle.

Assay [2] has as its system Female C57B1/6 mice. As to the method: To test the effect of trigonelline in non-trained animals, we performed a maximal endurance test after a treatment period of three weeks.
Female C57B1/6 mice were delivered at a weight of 18-20 g and acclimatized to the facilities for a period of one week. At the beginning of the study the animals were randomized into two groups (10 animals per group). All mice were housed separately and had access to feed and water ad libidum. Animals were treated for three weeks by gavage with trigonelline-hydrochloride at a daily dosage of 300 mg/kg/BW and the control group received vehicle.
For acclimatization, animals were placed on the treadmill for 5 minutes after two weeks. The maximal endurance test was performed two day before the section of the animals.

For assay [3], the system named is Female C57B1/6 mice. The settings on record: three weeks.
From the text: The gastrocnemius muscle from one hindlimb of the animals was removed to induce compensatory hypertrophy in the plantaris and soleus muscles by multiple mechanisms. This model increases the muscle weight under muscle load/training. It simulates the human condition of an average human who is physically active or an athlete to support skeletal muscle function during exercise.
as §1
The animals were anesthetized and the left hindlimb of the animals was fixed. A small incision was made through the skin over the gastrocnemius muscle. The complete gastrocnemius muscle and its tendons were exposed. Both heads of the gastrocnemius muscle were carefully dissected from the underlying intact muscles and care was taken not to rupture nerves and vessels. The skin was closed with a silk and the animals were returned separately into their cages. […] All animals received an analgesic. Animals were treated for three weeks by gavage with trigonelline-hydrochloride at a daily dosage of 300 mg/kg BW and the control group received vehicle.

For assay [4], the system named is C2C12 mouse myoblast cells. The following applies: 10 μg/ml trigonelline monohydrate, 24 h, vs DMSO control.
Method: C2C12 cells were seeded on 96 well collagen-I plates (1600 cells/well) in growth medium (Dulbecco's modified Eagle's medium (DMEM) supplemented with 10% FBS, 2 mM L-Glutamine, 1 mM pyruvate, 50 IU/ml penicillin, 50 ug/ml streptavidin) until it reaches 100% confluency, approximately 3 days. […] Final DMSO concentration was standardized to 0.5% in all wells. Cells were cultured at 37° C., with 5% CO2.
Cells were fixed with 3.7% formaldehyde solution (37% formaldehyde diluted in growth medium, sterile filtered before used) for 10 min. at room temperature, and washed twice with 1×DPBS (1× Dulbecco's Phosphate Buffered Saline). After permeabilization with 0.1% TritonX-100 (diluted in 1×DPBS) for 2 min. the samples were blocked with 1×DPBS plus 2% BSA for 1 h. For myocyte labelling, the cells were labelled with 1:20 anti-alpha-myosin heavy chain antibody (MF-20) for 1 hour. The samples were washed with 1×DPBS and fluorescently labelled with secondary antibody (1:250 Alexa 488 IgG antimouse secondary antibody plus 1:2000 Hoechst in 1×DPBS) for 1 h. Finally, the cells were washed twice with 1×DPBS and plates were sealed for imaging on the ArrayScan® HCS Reader.
For image analysis myosin labelled myotubes were quantified on the ArrayScan HCS Reader using BioApplication Morphology Explorer.V2. Myocytes were selected with Object Area larger than 500 and Object Total Intensity greater than 1000.
Where [5] appears, read: 300 mg/kg/BW daily by gavage, computer tomography.
Where [6] appears, read: 300 mg/kg/BW daily by gavage, three weeks, untrained mice.
Where [7] appears, read: 300 mg/kg BW daily by gavage, computer tomography.
The mark [8] stands for this setting: 300 mg/kg BW daily by gavage, non-operated leg.

Structures can show the parent of a compound that is named as a salt. Where two headings read alike, the source gives them in different places. Marks after values point to notes of the source that are not given here.

In the case of `C[n+]1cccc(C(=O)[O-])c1` [Trigonelline-hydrochloride, trigonelline-hydrochloride], in the assay on Female C57B1/6 mice [1] (300 mg/kg/BW daily by gavage), the “Gastrocnemius-Plantaris-Soleus muscle weight (whole leg)/body weight” value is listed as 4.89* mg/g, the “M. gastrocnemius wet weight” value is reported as 86.01* mg, the “M. gastrocnemius wet weight/body weight” value is on record as 4.16* mg/g and the “M. plantaris wet weight” value is listed as 10.53 mg. Further, in the assay on Female C57B1/6 mice [1] (300 mg/kg/BW daily by gavage), the “M. plantaris wet weight/body weight” value is on record as 0.51* mg/g, the “M. soleus wet weight” value is 4.62 mg and the “M. soleus wet weight/body weight” value was 0.22 mg/g. Further, in the assay with Female C57B1/6 mice [1] (setting [5]), the Muscle cross-sectional area is 27.8 mm^2 and the “Total leg cross-sectional area” value is reported as 30.4 mm^2. The “increase of wet weight of the gastrocnemius muscle (relative to the body weight)” value in the assay on Female C57B1/6 mice [1] (trigonelline-hydrochloride 300 mg/kg/BW daily, vs control (FIG. 3), statistically significant) was determined as 9%. Besides, in the assay on Female C57B1/6 mice [2] (setting [6]), the “Gastrocnemius-Plantaris-Soleus muscle weight (whole leg)/body weight” value amounted to 5.41 mg/g, the “M. gastrocnemius wet weight” value was found to be 100.66 mg, the “M. gastrocnemius wet weight/body weight” value is on record as 4.57 mg/g and the “M. plantaris wet weight” value stood at 12.12 mg. For the same molecule, in the assay with Female C57B1/6 mice [2] (setting [6]), the “M. plantaris wet weight/body weight” value stood at 0.55 mg/g, the “M. soleus wet weight” value was determined as 6.29 mg and the “M. soleus wet weight/body weight” value worked out at 0.29 mg/g. Besides, in the assay on Female C57B1/6 mice [2] (300 mg/kg/BW daily by gavage, three weeks, untrained mice, treadmill), the Mean running time worked out at 38.70 min. Also, in the assay on Female C57B1/6 mice [3] (setting [7]), the “Muscle cross-sectional area - non operated leg” value turned out to be 32.15 mm^2, the “Muscle cross-sectional area - operated leg” value came out at 23.72 mm^2, the “Total leg cross-sectional area - non operated leg” value amounted to 35.05 mm^2 and the “Total leg cross-sectional area - operated leg” value worked out at 26.79 mm^2. Besides, in the assay with Female C57B1/6 mice [3] (setting [8]), the “Gastrocnemius-Plantaris-Soleus muscle weight (whole leg)/body weight (non-operated leg)” value stood at 5.50 mg/g, the “M. gastrocnemius wet weight (non-operated leg)” value stood at 99.3 mg, the “M. gastrocnemius wet weight/body weight (non-operated leg)” value worked out at 4.57 mg/g and the “M. plantaris wet weight (non-operated leg)” value is 13 mg. Moreover, in the assay with Female C57B1/6 mice [3] (setting [8]), the “M. plantaris wet weight/body weight (non-operated leg)” value worked out at 0.60 mg/g, the “M. soleus wet weight (non-operated leg)” value was found to be 7.2 mg and the “M. soleus wet weight/body weight (non-operated leg)” value was found to be 0.33 mg/g.
`C[n+]1cccc(C(=O)[O-])c1` [Trigonelline]: the “wet weight of the gastrocnemius muscle vs control (in words)” value in the assay on Female C57B1/6 mice [2] (three weeks treatment, untrained mice (FIG. 4)) was “equal in both groups”. For the same molecule, the “increase of differentiation in C2C12 mouse myoblast cells (number of myocytes)” value in assay [4] is reported as 36%. Also, the “increase of wet weight of the non-operated gastrocnemius muscle (relative to the body weight)” value in the assay on Female C57B1/6 mice [3] (trigonelline-hydrochloride 300 mg/kg BW daily, vs control (FIG. 2)) is on record as 7%.
